For this assay, the target named is T1, hMCHR (MCH receptor) (Homo sapiens, UniProt Q99705).
T1 construct: (or internally produced); host or cells: CHO (Chinese hamster ovary) cells, membrane preparation
The experiment in a line: MCH Assay PCOP Protocol ([125I]-MCH SPA binding to hMCHR-CHO membranes). Conditions: [125I]-MCH 0.5 nM, hMCHR-CHO membranes; read-out: Activity (ranges of Ki values). The protocol:
A reaction mixture of 10 μg hMCHR-CHO overexpressing membranes (from Receptor Biology, Inc., Beltsville, Md., or internally produced) and 100 μg/well WGA-SPA beads (from Amersham Pharmacia Biotech, Inc., Piscataway, N.J.)/100 μl was prepared in MCHR assay buffer (25 mM HEPES, pH 7.4, 10 mM NaCl, 10 mM MgCl2, 5 mM MnCl2, 0.1% BSA). […] The assay plates were shaken for 5 minutes on a plate shaker, then incubated for 2 hours before cpm/well were determined in a Microbeta Trilux counter (from PerkinElmer Wallac, Inc., Gaithersburg, Md.).

T1 sequence (Q99705 whole entry): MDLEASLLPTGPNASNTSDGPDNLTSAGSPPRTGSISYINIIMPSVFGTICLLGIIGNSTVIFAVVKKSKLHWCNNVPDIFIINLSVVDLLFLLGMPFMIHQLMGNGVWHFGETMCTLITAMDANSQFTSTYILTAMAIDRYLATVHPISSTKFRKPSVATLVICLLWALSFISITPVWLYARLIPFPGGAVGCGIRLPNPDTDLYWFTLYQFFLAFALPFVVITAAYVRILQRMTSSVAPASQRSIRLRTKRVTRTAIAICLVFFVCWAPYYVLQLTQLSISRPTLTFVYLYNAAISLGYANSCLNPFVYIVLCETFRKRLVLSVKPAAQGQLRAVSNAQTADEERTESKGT

Broadly, the Ki is a measure of affinity in units of concentration, obtained from inhibition or displacement. As for `Cc1ccc(C(CCNC2CCCC2)CN2CCN(c3cc(Cl)cc(Cl)c3)C2=O)cc1` (stereo not shown) [Example 160], the Ki lay within 51 to 500 nM.
The figure for `Cc1ccc(-c2cccc(C(CCNC3CCCC3)CNC(=O)Nc3cc(Cl)cc(Cl)c3)c2)cc1` (stereo not shown) [Example 161] is 501 to 2500 nM; for `Cc1ccc(-c2cccc(C(CCNCCCN(C)C)CNC(=O)Nc3cc(Cl)cc(Cl)c3)c2)cc1` (stereo not shown) [Example 162] it is 501 to 2500 nM.
The figure for `CN(C)CCCNCCC(CNC(=O)Nc1cc(Cl)cc(Cl)c1)c1cccc(-c2ccc3c(c2)OCO3)c1` (stereo not shown) [Example 163] is 501 to 2500 nM; for `COc1ccccc1-c1cccc(C(CCNC2CCCC2)CNC(=O)Nc2cc(Cl)cc(Cl)c2)c1` (stereo not shown) [Example 164] it is 501 to 2500 nM.
The figure for `CN(C)CCCNCCC(CNC(=O)Nc1cc(Cl)cc(Cl)c1)c1cccc(-c2ccc(F)cc2)c1` (stereo not shown) [Example 165] is 501 to 2500 nM.
For `O=C(NCC(CCNC1CCCC1)c1cccc(-c2ccccc2Cl)c1)Nc1cc(Cl)cc(Cl)c1` (stereo not shown) [Example 166], the Ki was 501 to 2500 nM.
The figure for `CN(C)CCCNCCC(CNC(=O)Nc1cc(Cl)cc(Cl)c1)c1cccc(-c2ccc(Cl)c(Cl)c2)c1` (stereo not shown) [Example 167] is 501 to 2500 nM.
The figure for `CC(=O)Nc1cccc(-c2cccc(C(CCNCCCN(C)C)CNC(=O)Nc3cc(Cl)cc(Cl)c3)c2)c1` (stereo not shown) [Example 168] is 501 to 2500 nM; for `CN(C)CCCNCCC(CNC(=O)Nc1cc(Cl)cc(Cl)c1)c1cccc(-c2cccc(C#N)c2)c1` (stereo not shown) [Example 169] it is 501 to 2500 nM; for `CN(C)CCCNCCC(CNC(=O)Nc1cc(Cl)cc(Cl)c1)c1cccc(-c2ccc(F)c(Cl)c2)c1` (stereo not shown) [Example 170] it is 501 to 2500 nM.
With `CN(C)CCCNCCC(CNC(=O)Nc1cc(Cl)cc(Cl)c1)c1cccc(-c2ccccc2)c1` (stereo not shown) [Example 171] the figure was 501 to 2500 nM; with `CN(C)CCCNCCC(CNC(=O)Nc1cc(Cl)cc(Cl)c1)c1cccc(-c2cccnc2)c1` (stereo not shown) [Example 172], 501 to 2500 nM.
Regarding `CN(C)CCCNCCC(CNC(=O)Nc1cc(Cl)cc(Cl)c1)c1cccc(-c2cccc(F)c2)c1` (stereo not shown) [Example 173], the Ki fell in the range of 501 to 2500 nM.
The figure for `COc1ccccc1-c1cccc(C(CCNCCCN(C)C)CNC(=O)Nc2cc(Cl)cc(Cl)c2)c1` (stereo not shown) [Example 174] is 501 to 2500 nM; for `CN(C)CCCNCCC(CNC(=O)Nc1cc(Cl)cc(Cl)c1)c1cccc(-c2cc(C(F)(F)F)cc(C(F)(F)F)c2)c1` (stereo not shown) [Example 175] it is 501 to 2500 nM.
The figure for `CN(C)CCCNCCC(CNC(=O)Nc1cc(Cl)cc(Cl)c1)c1cccc(-c2ccccc2Cl)c1` (stereo not shown) [Example 176] is 501 to 2500 nM.
The figure for `CCNC(=O)N1CCC(NCCC(CNC(=O)Nc2cc(Cl)cc(Cl)c2)c2ccc(Cl)cc2)C1` (stereo not shown) [Example 177] is 51 to 500 nM; for `O=C(NCC(CCN1CCC(NC(=O)C2CCC2)C1)c1ccc(Cl)cc1)Nc1cc(Cl)cc(Cl)c1` (stereo not shown) [Example 178] it is 51 to 500 nM; for `CS(=O)(=O)NC1CCN(CCC(CNC(=O)Nc2cc(Cl)cc(Cl)c2)c2ccc(Cl)cc2)CC1` (stereo not shown) [Example 179] it is 51 to 500 nM.
As for `CCNC(=O)N1CCC(NCCC(CNC(=O)Nc2cc(Cl)cc(Cl)c2)c2ccc(C)cc2)C1` (stereo not shown) [Example 180], the Ki was in the range of 51 to 500 nM.
`O=C(NCC(CCN1CCC(NC(=O)C2CCC2)C1)c1ccc(Cl)c(Cl)c1)Nc1cc(Cl)cc(Cl)c1` (stereo not shown) [Example 181]: the Ki lay in the range of 51 to 500 nM.
With `CCNC(=O)N1CCC(NCCC(CNC(=O)Nc2cc(Cl)cc(Cl)c2)c2ccc(Cl)c(Cl)c2)C1` (stereo not shown) [Example 182], the Ki fell in the range of 51 to 500 nM.
The figure for `O=C(NCC(CCN1CCC(NC(=O)c2cccs2)C1)c1ccc(Cl)cc1)Nc1cc(Cl)cc(Cl)c1` (stereo not shown) [Example 183] is 51 to 500 nM; for `Cc1ccc(C(CCN2CCC(NC(=O)C3CCC3)C2)CNC(=O)Nc2cc(Cl)cc(Cl)c2)cc1` (stereo not shown) [Example 184] it is 51 to 500 nM; for `O=C(NCC(CCN1CCC(NC(=O)C2CCC2)CC1)c1ccc(Cl)cc1)Nc1cc(Cl)cc(Cl)c1` (stereo not shown) [Example 185] it is 51 to 500 nM.
With `CC(=O)NC1CCN(CCC(CNC(=O)Nc2cc(Cl)cc(Cl)c2)c2ccc(Cl)cc2)C1` (stereo not shown) [Example 186] the figure was 51 to 500 nM.
The figure for `Cc1ccc(C(CCN2CCC(NC(=O)C3CCC3)CC2)CNC(=O)Nc2cc(Cl)cc(Cl)c2)cc1` (stereo not shown) [Example 187] is 51 to 500 nM.
For `COCC(=O)NC1CCN(CCC(CNC(=O)Nc2cc(Cl)cc(Cl)c2)c2ccc(Cl)c(Cl)c2)C1` (stereo not shown) [Example 188], the inhibition constant Ki was 51 to 500 nM.
For the compound `O=C(NCC(CCN1CCC(NC(=O)c2cccs2)C1)c1ccc(Cl)c(Cl)c1)Nc1cc(Cl)cc(Cl)c1` (stereo not shown) [Example 190], the Ki lay in the range of 51 to 500 nM.
Take `O=C(NCC(CCN1CCC(NC(=O)C2CCC2)CC1)c1ccc(Cl)c(Cl)c1)Nc1cc(Cl)cc(Cl)c1` (stereo not shown) [Example 191]: the inhibition constant (Ki) was in the range of 51 to 500 nM.
The figure for `COCC(=O)NC1CCN(CCC(CNC(=O)Nc2cc(Cl)cc(Cl)c2)c2ccc(Cl)cc2)CC1` (stereo not shown) [Example 192] is 51 to 500 nM; for `O=C(NCC(CCN1CCC(NC(=O)c2ccno2)C1)c1ccc(Cl)cc1)Nc1cc(Cl)cc(Cl)c1` (stereo not shown) [Example 193] it is 51 to 500 nM.
With `COCC(=O)NC1CCN(CCC(CNC(=O)Nc2cc(Cl)cc(Cl)c2)c2ccc(Cl)cc2)C1` (stereo not shown) [Example 194] the figure was 51 to 500 nM.
With `COCC(=O)NC1CCN(CCC(CNC(=O)Nc2cc(Cl)cc(Cl)c2)c2ccc(Cl)c(Cl)c2)CC1` (stereo not shown) [Example 195] the figure was 51 to 500 nM; with `CC(=O)NC1CCN(CCC(CNC(=O)Nc2cc(Cl)cc(Cl)c2)c2ccc(Cl)cc2)CC1` (stereo not shown) [Example 196], 51 to 500 nM; with `COc1cscc1C(=O)NC1CCN(CCC(CNC(=O)Nc2cc(Cl)cc(Cl)c2)c2ccc(Cl)cc2)C1` (stereo not shown) [Example 197], 51 to 500 nM.
`Cc1ccc(C(CCN2CCC(NC(=O)c3cccs3)CC2)CNC(=O)Nc2cc(Cl)cc(Cl)c2)cc1` (stereo not shown) [Example 198]: the Ki was in the range of 51 to 500 nM.
With `CC(=O)NC1CCN(CCC(CNC(=O)Nc2cc(Cl)cc(Cl)c2)c2ccc(Cl)c(Cl)c2)CC1` (stereo not shown) [Example 199] the figure was 51 to 500 nM; with `COc1cscc1C(=O)NC1CCN(CCC(CNC(=O)Nc2cc(Cl)cc(Cl)c2)c2ccc(Cl)c(Cl)c2)C1` (stereo not shown) [Example 200], 501 to 2500 nM; with `COc1cscc1C(=O)NC1CCN(CCC(CNC(=O)Nc2cc(Cl)cc(Cl)c2)c2ccc(Cl)cc2)CC1` (stereo not shown) [Example 201], 501 to 2500 nM.
As for `Cc1ccc(C(CCN2CCC(NC(=O)c3ccno3)C2)CNC(=O)Nc2cc(Cl)cc(Cl)c2)cc1` (stereo not shown) [Example 202], the Ki was 501 to 2500 nM.
As to `COc1cscc1C(=O)NC1CCN(CCC(CNC(=O)Nc2cc(Cl)cc(Cl)c2)c2ccc(C)cc2)CC1` (stereo not shown) [Example 203], the Ki was 501 to 2500 nM.
In the case of `CS(=O)(=O)NC1CCN(CCC(CNC(=O)Nc2cc(Cl)cc(Cl)c2)c2ccc(Cl)cc2)C1` (stereo not shown) [Example 204], the Ki lay in the range of 501 to 2500 nM.
With `Cc1ccc(C(CCN2CCC(NC(=O)c3ccno3)CC2)CNC(=O)Nc2cc(Cl)cc(Cl)c2)cc1` (stereo not shown) [Example 205] the figure was 501 to 2500 nM.
The figure for `CC(=O)NC1CCN(CCC(CNC(=O)Nc2cc(Cl)cc(Cl)c2)c2ccc(C)cc2)CC1` (stereo not shown) [Example 206] is 501 to 2500 nM; for `Cc1ccc(C(CCN2CCC(NS(C)(=O)=O)C2)CNC(=O)Nc2cc(Cl)cc(Cl)c2)cc1` (stereo not shown) [Example 207] it is 501 to 2500 nM.
Turning to `COCC(=O)NC1CCN(CCC(CNC(=O)Nc2cc(Cl)cc(Cl)c2)c2ccc(C)cc2)C1` (stereo not shown) [Example 208], the Ki was 501 to 2500 nM.
`O=C(NCC(CCN1CCC(NC(=O)c2ccno2)C1)c1ccc(Cl)c(Cl)c1)Nc1cc(Cl)cc(Cl)c1` (stereo not shown) [Example 209]: the Ki was 501 to 2500 nM.

For the origin of these results see patent US7034056B2, “Aryl and biaryl compounds having MCH modulatory activity” (Pharmacopeia Drug Discovery, inc., priority 2001, dated 2006).
